Laboratory results taken from patent publication US20080031922A1, “Delivery System” (priority 2004, published 2008).
Several values for one entry are separate records, joined by “and”; a condition that tells them apart may be missing. Equal values may be shown once. Each block holds one compound with its values, some of them ahead of it.

Experiments:
Assay type in all cases: physicochemical
[1] = in vitro release rate of FAP from intrauterine system (IUS)
Experimental: The release rate of the therapeutically active substance from the device was measured in vitro as follows:
The devices (implant, intravaginal ring, intracervical or intrauterine system) were attached into a stainless steel holder in vertical position and the holders with the devices were placed into glass bottles containing 75 ml of a dissolution medium, a 1 wt-% hydroxypropyl cyclodextrin solution. The glass bottles were shaked in shaking waterbath 100 rpm at 37° C. The dissolution medium was withdrawn and replaced by a fresh dissolution medium at predetermined time intervals, and the amount of the released substance was analysed by using standard HPLC methods. The concentration of the dissolution medium and the moment of change (withdrawal and replacement) of medium were selected, so that sink-conditions were maintained during the test.
HPBCD modification was tested with a fluorinated antiprogestin derivative (FAP, 11-(4-Acetylphenyl)-17-hydroxy-17-(1,1,2,2,2-pentafluoroethyl)estra-4,9-dien-3-one) in intrauterine (IUS) system. Two samples of 1 and 4 wt-% of HPBCD content in the membrane were prepared by combining with swelling separately extruded membrane and core elastomer rods over the IUS T-frame. The swelling agent was isopropanol.
The content of the therapeutically active agent in the core elastomer was 65 wt-% and the outer diameter of the core was 2.88-2.92 mm and length 21.0-21.1 mm. The membrane was 3 mm longer than the core and the thickness of the membrane was 0,25 mm. FIG. 3 presents the release rate of the therapeutically active agent (μg/d, shown in the y-axis) from two FAP containing intrauterine systems as a function of time (days, shown in the x-axis) compared to a reference sample. Indeed, the squares represent the results for the reference sample, the losanges illustrate the results for the cyclodextrin modified membrane, when the amount of cyclodextrin was 1 wt-% and the triangles represent the results for the cyclodextrin modified membrane, when the amount of cyclodextrin was 4 wt-%.

[2] = in vitro release rate of gestodene from implant
Experimental: The release rate of the therapeutically active substance from the device was measured in vitro as follows: The devices (implant, intravaginal ring, intracervical or intrauterine system) were attached into a stainless steel holder in vertical position and the holders with the devices were placed into glass bottles containing 75 ml of a dissolution medium, a 1 wt-% hydroxypropyl cyclodextrin solution. The glass bottles were shaked in shaking waterbath 100 rpm at 37° C. The dissolution medium was withdrawn and replaced by a fresh dissolution medium at predetermined time intervals, and the amount of the released substance was analysed by using standard HPLC methods. The concentration of the dissolution medium and the moment of change (withdrawal and replacement) of medium were selected, so that sink-conditions were maintained during the test. The present invention was also tested with an implant containing gestodene, a synthetic progestogene hormone. The implant core and membrane rods were made with extrusion and the implant composition was made by swelling the membrane in propanol. The outer diameter of the implant core was 2.5-3.0 mm and the length 40-48 mm. The content of the therapeutically active agent in the core was 65 wt-%. The membrane thickness was 0.25 mm, inner diameter 2.35-2.65 mm, outer diameter was 3.0-3.25 mm and length 10 mm longer than the elastomer core. The HPBCD content of the implant membrane was 4 wt-%. The membrane was made of PEO-b-PDMS (15 wt-%) and PDMS (85 wt-%). The results are shown in FIG. 2 as the release rate of the therapeutically active agent (μg/d, shown in y-axis) versus time (days, shown in x-axis), wherein the squares represent the results for the Reference 1, the losanges represent the results for an implant having a HPBCD-containing membrane and the triangles illustrate the results for Reference 2. Reference 1 comprises a core having an outer diameter of 2.5 mm and a length of 40 mm, and a membrane, the thickness of which is 0.25 mm. The implant having a membrane containing 1 wt-% HPBCD has a core with an outer diameter of 3.03 mm and a length of 44 mm, and the membrane wall of 0.25 mm. Reference 2 comprises a core having an outer diameter of 2.8 mm, a length of 48 mm and the membrane with a wall of 0.25 mm.

[3] = in vitro release rate of danazol from intravaginal ring (IVR)
Experimental: The release rate of the therapeutically active substance from the device was measured in vitro as follows: The devices (implant, intravaginal ring, intracervical or intrauterine system) were attached into a stainless steel holder in vertical position and the holders with the devices were placed into glass bottles containing 75 ml of a dissolution medium, a 1 wt-% hydroxypropyl cyclodextrin solution. The glass bottles were shaked in shaking waterbath 100 rpm at 37° C. The dissolution medium was withdrawn and replaced by a fresh dissolution medium at predetermined time intervals, and the amount of the released substance was analysed by using standard HPLC methods. The concentration of the dissolution medium and the moment of change (withdrawal and replacement) of medium were selected, so that sink-conditions were maintained during the test. […] Hydroxypropyl β-cyclodextrin (HPBCD) was used as the regulating agent. Three different implants with different hydroxypropyl β-cyclodextrin (HPBCD) contents in the membrane were made and the results were compared to corresponding implants without any added HPBCD. All the implants consisted of a core containing the therapeutically active agent and a release rate-controlling membrane encasing the core. The core and the membrane silicone elastomer rods were manufactured by extrusion and the implant compositions were made by swelling the membrane in propanol, as explained above. The content of the therapeutically active agent was 20 wt-% (weight percent) in the core and the micronized hormone was mixed into the elastomer with a mixer before extrusion. The diameters of the IVR rings were ca. 50-55 mm and the periphery of the cross section ca. 9-10 mm, the thicknesses of the membranes were 0.25, 0.35 and 0.7 mm and the HPBCD contents of the membrane were 0.17 wt-%, 1.7 wt-% and 7.7 wt-% respectively. The results are shown in FIG. 1 for the daily in vitro release rate per core area (μg/(d*mm^2), shown as the y axis and days shown in the x-axis), wherein the empty triangles represent the results for 0.17 wt-% HPBCD-content in the membrane with 0.7 mm wall thickness. The empty squares illustrate the results for 1.7 wt-% HPBCD-content in the membrane with 0.35 mm wall thickness and the stars show the results for 7.7 wt-% HPBCD-content in the membrane with 0.25 mm wall thickness. The full triangles represent the comparative results for a membrane with wall thickness of 0.3 mm and the full squares illustrate the comparative results for a membrane with wall thickness of 0.9 mm.

- burst effect ([1]; amount of cyclodextrin in membrane 1 wt-%): still some burst effect remaining
- level of the release rate ([1]; amount of cyclodextrin in the membrane 4 wt-% (vs 1 wt-%)): higher
- release rate profile compared to reference sample ([1]; both cyclodextrin modified samples (1 and 4 wt-%)): higher
- initial burst ([1]; both cyclodextrin-modified membranes (1 and 4 wt-% HPBCD) vs reference sample, FIG. 3): decreased
- shape of the curve of the release rate after two days ([1]; reference and modified samples compared): similar
Structure (SMILES): CC(=O)c1ccc(C2C[C@@]3(C)[C@@H](CCC3(O)C(F)(F)C(F)(F)F)[C@@H]3CCC4=CC(=O)CCC4=C23)cc1 (stereo partly drawn) [FAP, 11-(4-Acetylphenyl)-17-hydroxy-17-(1,1,2,2,2-pentafluoroethyl)estra-4,9-dien-3-one]

- total decrease of release in 14 days ([2]; both reference samples (implants without HPBCD in membrane), FIG. 2): 30%
- total decrease of the gestodene release from the second to the third week ([2]; implant with cyclodextrin (HPBCD) modified membrane): 0.5%
- maximum decrease of release in two weeks ([2]; implant with cyclodextrin (HPBCD) modified membrane, FIG. 2): ca. 6%
- decrease of the gestodene release from the second to the third week ([2]; reference samples (implants without HPBCD in membrane)): 8.4% and 11%
Structure (SMILES): C#C[C@]1(O)C=C[C@H]2[C@@H]3CCC4=CC(=O)CC[C@@H]4[C@H]3CC[C@@]21CC [gestodene]

- release rate when HPBCD is added into the membrane ([3]; HPBCD modified IVR vs reference samples): seems to be higher
- release rate trend over time ([3]; HPBCD modified IVR, first two weeks, up to the zenith point): slightly increasing trend
- release rate compared to ordinary ring with 0.9 mm wall ([3]; IVR with 0.17 w-% HPBCD content and 0.7 mm membrane wall, two and half week release): stays equal
- initial burst without the modification relative to that found for modified samples ([3]; IVR without HPBCD (membrane wall 0.3 and 0.9 mm) vs HPBCD modified samples, FIG. 1): five to ten times
- initial burst without the modification relative to the release rate in two weeks dissolution ([3]; IVR without HPBCD (membrane wall 0.3 and 0.9 mm), FIG. 1): three to five times
- initial burst effect ([3]; IVR, all HPBCD modified samples (0.17, 1.7, 7.7 wt-% HPBCD in membrane; wall 0.7, 0.35, 0.25 mm), 1 wt-% hydroxypropyl cyclodextrin medium, 37° C, FIG. 1): negative initial burst effect
Structure (SMILES): C#C[C@]1(O)CC[C@H]2[C@@H]3CCC4=Cc5oncc5C[C@]4(C)[C@H]3CC[C@@]21C [danazol, (17alpha)-pregna-2,4-dien-20-yn[2,3-d]isoxazol-17-ol]
